Laboratory results taken from patent US20260374766A1, “METHODS FOR TREATING CANCER” (Antares Therapeutics, Inc., priority 2022, published 2026).
Where two headings read alike, the source gives them in different places.

Tests used:
[1] = target: T1, p53 Y220C mutant protein (amino acid residues 94-293) (Homo sapiens, UniProt P04637, Y220C); assay: Surface Plasmon Resonance (SPR) assay, Kd_kinetic; type: binding; conditions: SPR, p53 Y220C, read-out: SPR P53 Y220C KD kinetic
T1 construct: p53 Y220C mutant protein (amino acid residues 94-293)
In short: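 Biacore 8K SPR; 16 or 20 °C; Tris 50 mM pH 7.5, NaCl 100 mM, DTT 1 mM, Brij35 0.01%, Tween-20 0.05%, DMSO 1%. Kd_kinetic by 1:1 fit.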

[2] = target: T1, p53 Y220C mutant protein (amino acid residues 94-293); assay: Thermal Shift Assay (TSA), dTM; type: binding; conditions: for ΔTm at 100 µM: 100 uM compound, read-out: TSA P53 Y220C dTM (100 uM); for ΔTm at 10 µM: 10 uM compound
In short: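 First, the mutant DNA-binding domain (5 μM) was preincubated 3 hours at 20 °C with compound at 10 μM or 100 μM. Next, the sample was heated from 30 °C to 50 °C at 0.03 °C/second in the presence of Sypro Orange. Finally, TM was obtained from a two-state Boltzmann fit.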

p53 Y220C = p53 Y220C (Homo sapiens, UniProt P04637, Y220C); assay: Luciferase Reporter Assay (Luc), p53 response element, NClH1299 cells with inducible p53 Y220C; type: cell-based; conditions: luciferase reporter, NClH1299 inducible p53 Y220C, 6 hour; for AC50: read-out: Luc P53 Y220C AC50
In short: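 Luciferase activity is measured directly after One-Glo addition and a 5-minute room-temperature shake. Before that, cells plated at 5,000 per well receive doxycycline at 0.5 ug/mL for 24 hours, followed by compound for 6 hours.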

NUGC3 p53 Y220C = assay: Cell Proliferation Assay (CellTiter-Glo, CTG), NUGC3 p53 Y220C; type: cell-based; conditions: Homo sapiens, NUGC-3, 120 h, CellTiter-Glo, 5 days
In short: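 Tet-One inducible p53 Y220C or R273H constructs were stably introduced into NCI-H1299 by lentiviral transduction; NUGC3 was used as is. Cells (250-500 per well) were exposed to compound for 5 days, then CellTiter-Glo was added for 10 min at room temperature and IC50 was calculated from luminescence.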

H1299 p53 Y220C = assay: Cell Proliferation Assay (CellTiter-Glo, CTG), H1299 p53 Y220C (NClH1299-inducible p53 Y220C); type: cell-based; conditions: Homo sapiens, NCI-H1299, 120 h, CellTiter-Glo, 5 days
In short: (§1)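 NClH1299 lines stably transduced with Tet-inducible p53 Y220C or R273H, plus NUGC3, were treated with compound for 5 days at 250-500 cells/well. IC50 derived from CellTiter-Glo luminescent signal after 10 min room-temperature incubation.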

H1299 p53 R273H = assay: Cell Proliferation Assay (CellTiter-Glo, CTG), H1299 p53 R273H (NClH1299-inducible p53 R273H); type: cell-based; conditions: Homo sapiens, NCI-H1299, 120 h, CellTiter-Glo, 5 days
In short: as §1

[3] = 10 uM tool compound as positive control
[4] = thermal shift, read-out: TSA P53 Y220C dTM (10 uM)
[5] = p53 Y220C, read-out: TSA P53 Y220C dTM
[6] = NClH1299-inducible p53 Y220C cells
[7] = NClH1299-inducible p53 R273H cells

Row | Structure (SMILES) | Kd ([1]; kinetic KD) | ΔTm at 100 µM ([2]; thermal shift) | Emax (p53 Y220C; [3]) | AC50 (p53 Y220C) | IC50 (NUGC3 p53 Y220C; NUGC3 p53 Y220C) | IC50 (H1299 p53 Y220C; H1299 p53 Y220C) | IC50 (H1299 p53 R273H; H1299 p53 R273H) | ΔTm at 10 µM [2, 4] | Kd [1] | ΔTm at 10 µM [2, 5] | AC50 (p53 Y220C; AC50) | Emax (p53 Y220C; Emax) | IC50 (NUGC3 p53 Y220C; NUGC3 cells) | IC50 (H1299 p53 Y220C; [6]) | IC50 (H1299 p53 R273H; [7])
1 | COc1cc(C(=O)NC(C)C)ccc1NCC#Cc1nc2c(N[C@@H]3CCN(C)C[C@@H]3F)cccn2c1CC(F)(F)F [Example 48, 4-{[3-(8-{[(3S,4R)-3-fluoro-1-methylpiperidin-4-yl]amino}-3-(2,2,2-trifluoroethyl)imidazo[1,2-a]pyridin-2-yl)prop-2-yn-1-yl]amino}-N-isopropyl-3-methoxybenzamide] | < 10 nM | ≥ 10 °C | 70 to 80% | 750 to 1500 nM | 750 to 1500 nM | < 750 nM | 5000 to 8000 nM |  |  |  |  |  |  |  | 
2 | CNC(=O)c1ccc(NCC#Cc2nc3c(N[C@@H]4CCN(C)C[C@@H]4F)cccn3c2CC(F)(F)F)c(OCCOC)c1 [Example 62, 4-{[3-(8-{[(3S,4R)-3-fluoro-1-methylpiperidin-4-yl]amino}-3-(2,2,2-trifluoroethyl)imidazo[1,2-a]pyridin-2-yl)prop-2-yn-1-yl]amino}-3-(2-methoxyethoxy)-N-methylbenzamide] | < 10 nM | ≥ 10 °C | 70 to 80% | 750 to 1500 nM | 750 to 1500 nM | 750 to 1500 nM | ≥ 10000 nM |  |  |  |  |  |  |  | 
3 | CNC(=O)c1ccc(NCC#Cc2nc3c(N[C@@H]4CCN(C)C[C@@H]4F)cccn3c2CC(F)(F)F)c(OC)c1 [Example 36, 4-{[3-(8-{[(3S,4R)-3-fluoro-1-methylpiperidin-4-yl]amino}-3-(2,2,2-trifluoroethyl)imidazo[1,2-a]pyridin-2-yl)prop-2-yn-1-yl]amino}3-methoxy-N-methylbenzamide] | < 10 nM | ≥ 10 °C | 70 to 80% | 750 to 1500 nM | 750 to 1500 nM | 750 to 1500 nM | ≥ 10000 nM | 5 to 10 °C |  |  |  |  |  |  | 
4 | CNS(=O)(=O)c1ccc(NCC#Cc2nc3c(N[C@@H]4CCN(C)C[C@@H]4F)cccn3c2CC(F)(F)F)c(OC)c1 [Example 64, 4-{[3-(8-{[(3S,4R)-3-fluoro-1-methylpiperidin-4-yl]amino}-3-(2,2,2-trifluoroethyl)imidazo[1,2-a]pyridin-2-yl)prop-2-yn-1-yl]amino}-3-methoxy-N-methylbenzenesulfonamide] | < 10 nM | ≥ 10 °C | 70 to 80% | 750 to 1500 nM | < 750 nM | < 750 nM | 8000 to 10000 nM | ≥ 10 °C |  |  |  |  |  |  | 
5 | CNC(=O)c1cnc(OC)c(NCC#Cc2cc3c(N[C@@H]4CCN(C)C[C@@H]4F)cccn3c2SC(F)(F)F)c1 [Example 256] |  |  |  |  |  |  |  |  | < 10 nM | ≥ 10 °C | < 750 nM | > 90% | < 750 nM | < 750 nM | 5000 to 8000 nM
6 | CNC(=O)c1ccc(OC)c(NCC#Cc2cc3c(N[C@@H]4CCN(C)C[C@@H]4F)cccn3c2SC(F)F)c1 [Example 343] |  |  |  |  |  |  |  |  | < 10 nM | ≥ 10 °C | < 750 nM | > 90% | < 750 nM | < 750 nM | ≥ 10000 nM
7 | CNC(=O)c1ccc(C)c(NCC#Cc2nc3c(N[C@@H]4CCN(C)C[C@@H]4F)cccn3c2SC(F)(F)F)c1 [Example 160] | < 10 nM | ≥ 10 °C | > 90% | < 750 nM | < 750 nM | < 750 nM | ≥ 10000 nM | ≥ 10 °C |  |  |  |  |  |  | 
8 | CNC(=O)c1ccc(OC)c(NCC#Cc2nn3c(N[C@@H]4CCN(C)C[C@@H]4F)cccc3c2SC(F)F)c1 [Example 194] | < 10 nM | 5 to 10 °C | > 90% | < 750 nM | < 750 nM | < 750 nM | 5000 to 8000 nM | ≥ 10 °C |  |  |  |  |  |  | 
